Assay results reported in patent publication US11879140B2, “P21 mRNA targeting DNAzymes” (1E Therapeutics Ltd., priority 2020, dated 2024).
[invdT] = inverted (3'-3') thymidine

Key:
[1] = tested on: senescent human IMR-90 fibroblast cells; format: cell-based; details: increasing concentrations (FIGS. 6A-C, 12A-C)
Description: Human IMR-90, BJ, WI-38 fibroblasts and REC epithelial cells were obtained from ATCC and grown at 5% oxygen. IMR-90 and REC cells were maintained in DMEM medium comprising 100 units per ml of penicillin, […] of streptomycin and 10% fetal bovine serum. BJ and WI-38 cells were maintained in EMEM medium comprising 100 units per ml of penicillin, […] of streptomycin, 10% fetal bovine serum, 1% Pyruvate, 1% L-Glutamine, mLFs were isolated according to standard procedures [Seluanov, A., et al. J Vis Exp (2010) (44):2033] and grown at 5% oxygen. Cells were maintained in EMEM medium comprising 100 units per ml of penicillin, […] of streptomycin and 15% fetal bovine serum.
DNA damage induced senescence (DIS) was induced by etoposide treatment (E1383, Sigma) at a concentration of […] for IMR-90, BJ, and WI-38, 16 μM for mLF and 12.5 μM for REC for a duration of 48 hours. Cells acquired the senescence phenotype 7 days post treatment (determined by SA-beta-gal staining).
Oncogene Induced Senescence (OIS) was induced by means of retroviral infection with H-RasG12 (pLNCX2) at 5% oxygen. Retroviruses were packaged, and infections were performed as described below.
Replicative Induced Senescence (RIS) was induced by long-term passaging of the cells in tissue culture. Cells acquired the senescence phenotype after 40 population doublings.
Primary target cells (IMR-90, BJ, […]) were plated in 24-well plates at 100,000 cells per well. Cells were transfected with different concentrations of DNAzymes (as depicted in Table 2, below) using Lipofectamine™ 2000 (Invitrogen) according to manufacturer instructions. The percentage of survival was determined based on quantification of remaining adherent cells using PrestoBlue® reagent (A13262, Life Technologies Ltd.) relative to Lipofectamine™ only control and compared to Scramble DNAzyme (Dz_Scramble) [Scramble Arm (Scr A) sequence: ATCTTCCTFggctagctacaacgaCGCCTCTCC, SEQ ID NO: 5, or Scramble catalytic core (Scr B) sequence: AGGAGAACAacagtaactggcgacGGGATGAGG, SEQ ID NO: 86] treated cells, 3-6 days following transfection.

human p21 mRNA = assay: In vitro cleavage assay of human p21 mRNA; format: biochemical; details: in vitro cleavage of p21 mRNA (SEQ ID NO: 1); RNA substrate 500 nM, 37° C. 60 min, agarose gel
Excerpt: Total RNA was isolates from senescent IMR-90 cells using Nucleospin® RNA kit (Macherey-Nagel™). cDNA was synthesized with gene-specific reverse primers using M-MLV Reverse Transcriptase (Promega), according to the manufacturer's protocol. To generate template for in vitro transcription (IVT) reaction, the cDNA was PCR amplified using KAPA Taq EXtra HotStart® ReadyMix™ PCR Kit (R&D). PCR product was run on 1.5% agarose TAE gel, the correct band size was cut and DNA was cleaned using Wizard® SV Gel and PCR Clean-Up System kit (Promega). IVT was performed using HiScribe™ T7 High Yield RNA Synthesis Kit (NEB). Samples were then treated with DNase I (New England Biolabs) and incubated for 15 minutes at 37° C. IVT product was run on 1.5% agarose TBE gel, the correct band size was cut and RNA was cleaned using QIAquick® Gel Extraction Kit (Qiagen). See primer sequences in Table 1, below.
RNA substrate was diluted with Molecular Biology Grade Water (Biological Industries) and used in in vitro cleavage assay. A 20 μl reaction system comprising RNA substrate (final concentration 500 nM), 2 μl 10× reaction buffer (50 mM Tris-HCl pH 7.4, 100 mM NaCl, 10 mM MgCl2) and 1 μl DNAzyme (10 μM) (as depicted in Table 2, below) was mixed. Reactions were incubated at 37° C. for 60 min. 2×RNA L.D. (Thermo Fisher) was added to each sample. Samples were heated at 70° C. for 30 sec, centrifuged and loaded onto 1.5% agarose TBE gels. Quantification was performed using Image Lab software (Bio Rad).

p21 mRNA = assay: Quantitative RT-PCR of p21 mRNA in senescent cells; format: cell-based, human; details: over 24 hours following treatment, 2000 nM (FIG. 5D)
Description: Total RNA was extracted from IMR-90 cells using NucleoSpin® RNA (Macherey-Nagel™), according to the manufacturer protocol. Complementary DNA was prepared using the M-MLV Reverse Transcriptase (Promega), according to the manufacturer protocol. Quantitative real-time PCR was performed using the SYBR Green PCR master-mix (Applied Biosystems) on a CFX96 Real-Time PCR System (Bio Rad). See primer sequences in Table 1, above.

healthy C57/B6 mice = assay: In-vivo safety of DNAzyme in mice
Description: 8 weeks old male and female C57/BL6 were treated intranasally with DNAzyme 1670 for 14 days. DNAzyme was administered in three concentrations: 40, 200 and 1000 μg. PBS treated mice served as control. Body weight, viability, clinical signs and behavior were monitored daily. On day 14, blood was collected using cardiac puncture and mice were sacrificed thereafter. Blood analyses were performed by AML (Central Lab Services). Hematology was performed using Advia-2120 (Siemens Healthineers). Biochemistry was performed using COBAS® 6000 (Roche Diagnostics).

Substance | Validated cleavage (human p21 mRNA) | other results
DNAzyme 985: SEQ ID NO: 36: GGGGGCGGtccgagccggacgaAGGGTATGT (GGGGGCGGTCCGAGCCGGACGAAGGGTATGT; DNA, backbone and methylation of C not given here) | validated for mediating cleavage of p21 mRNA | selectivity of killing, senescent versus growing IMR-90 cells [1]: wide range of selective doses; p21 mRNA knockdown (p21 mRNA): 73%
DNAzyme 1670 comprising a 3′Inverted dT: DNAzyme 1670 (SEQ ID NO: 54) with a 3′ inverted dT modification (DNA GGGAAAGGAGGCTAGCTACAACGAAAGGGGGAG; DNA, all phosphodiester, 3' [invdT], methylation of C not given here; further chemistry not fully specified) |  | blood tests: complete blood count and biochemistry parameters (healthy C57/B6 mice; 2 week endpoint (FIGS. 13G-O)): safe profile; signs of pain or distress (healthy C57/B6 mice; 40, 200, 1000 micrograms intranasally daily for 2 weeks): no obvious signs of pain or distress; body weight between groups (healthy C57/B6 mice; 40, 200, 1000 micrograms intranasally daily for 2 weeks (FIG. 13F)): no significant differences
DNAzyme 1742: SEQ ID NO: 59: TCCAGTCCAggctagctacaacgaTGAGCTGGG (DNA TCCAGTCCAGGCTAGCTACAACGATGAGCTGGG; DNA, backbone and methylation of C not given here) | validated for mediating cleavage of p21 mRNA | 
DNAzyme 1786: SEQ ID NO: 60: GAGGTAGAAggctagctacaacgaTAGGGTGCC (DNA GAGGTAGAAGGCTAGCTACAACGATAGGGTGCC; DNA, backbone and methylation of C not given here) | validated for mediating cleavage of p21 mRNA | 
DNAzyme 1838: SEQ ID NO: 63: GGACCCTCAggctagctacaacgaCCCCACAGC (DNA GGACCCTCAGGCTAGCTACAACGACCCCACAGC; DNA, backbone and methylation of C not given here) | validated for mediating cleavage of p21 mRNA | 
DNAzyme 1851: SEQ ID NO: 64: GTGCCACCAggctagctacaacgaATGGGACCC (DNA GTGCCACCAGGCTAGCTACAACGAATGGGACCC; DNA, backbone and methylation of C not given here) | validated for mediating cleavage of p21 mRNA | 
DNAzyme 1854: SEQ ID NO: 65: CCTGTGCCAggctagctacaacgaCACATGGGA (DNA CCTGTGCCAGGCTAGCTACAACGACACATGGGA; DNA, backbone and methylation of C not given here) | validated for mediating cleavage of p21 mRNA | 
DNAzyme 1947: SEQ ID NO: 69: GCTGGACGAggctagctacaacgaTTGAGGGGC (DNA GCTGGACGAGGCTAGCTACAACGATTGAGGGGC; DNA, backbone and methylation of C not given here) | validated for mediating cleavage of p21 mRNA | 
DNAzyme 1967: SEQ ID NO: 70: TGGGGTGGAggctagctacaacgaGAGGAAGGT (DNA TGGGGTGGAGGCTAGCTACAACGAGAGGAAGGT; DNA, backbone and methylation of C not given here) | validated for mediating cleavage of p21 mRNA | 
DNAzyme 1976: SEQ ID NO: 71: GGGGAGGGAggctagctacaacgaGGGGTGGAT (DNA GGGGAGGGAGGCTAGCTACAACGAGGGGTGGAT; DNA, backbone and methylation of C not given here) | validated for mediating cleavage of p21 mRNA | 
DNAzyme 1986: SEQ ID NO: 72: GCAATGAAtccgagccggacgaGGGGAGGGA (DNA GCAATGAATCCGAGCCGGACGAGGGGAGGGA; DNA, backbone and methylation of C not given here) | validated for mediating cleavage of p21 mRNA | 
DNAzyme 1987: SEQ ID NO: 73: TGCAATGAAggctagctacaacgaTGGGGAGGG (DNA TGCAATGAAGGCTAGCTACAACGATGGGGAGGG; DNA, backbone and methylation of C not given here) | validated for mediating cleavage of p21 mRNA | 
DNAzyme 1991: SEQ ID NO: 74: AAAGTGCAAggctagctacaacgaGAACTGGGG (DNA AAAGTGCAAGGCTAGCTACAACGAGAACTGGGG; DNA, backbone and methylation of C not given here) | validated for mediating cleavage of p21 mRNA | 
DNAzyme 2266: SEQ ID NO: 78: AGAGGTTTAggctagctacaacgaAGTCTAGGT (DNA AGAGGTTTAGGCTAGCTACAACGAAGTCTAGGT; DNA, backbone and methylation of C not given here) | validated for mediating cleavage of p21 mRNA | 
